Assay results: US11667552B2, “Silver ion biocide delivery system” (priority 2018, dated 2023)

Tests used:
[1] = Silver ion concentration in effluent of water passed through a packed bed of silver material
From the text: In this method, water is passed through a bed of silver chloride which releases silver chloride into the water stream as it flows through the bed.

[2] = Source text: Another method of releasing silver ion in a water stream is the use of metal oxides, carbonates, and salts containing silver. These metal salts may include, but are not limited to, metal oxides, metal halides, or metal salts containing silver, and/or metallic silver, or a combination, mixture or alloy of metals containing silver.
Certain embodiments can be designed with internal design elements to compensate for decreasing volume of material as it is used during operation, without the need to use springs and associated hardware.

SMILES	Effluent Conc. Range Packed Bed (ug Ag^+/l) [1]	Max Theoretical Conc (ug salt/L) [2]	theoretical solubility limit [2]	silver ion in effluent from the AgCl bed ([1]; typical, depends on material morphology, temperature, pH)
[Br][Ag] [Silver Bromide]	5 to 100 µg/L	–	–	–
[Cl][Ag] [Silver Chloride]	200 to 800 µg/L	1,900 ug/l	about 3 mg/l	about 100 μg/l
